Reference: the CheMixHub viscosity set

Test: xn = mol fraction of the nth substance listed

Brc1ccccc1 + OCCOCCOCCO
viscosity [mPa·s], 101 kPa
Conditions | 298.15 K | 308.15 K
x2 = 0.0462 | 1.316 | 1.168
x2 = 0.1502 | 2.173 | 1.769
x2 = 0.2493 | 3.39 | 2.568
x2 = 0.3505 | 5.164 | 3.674
x2 = 0.4433 | 7.374 | 5.002
x2 = 0.4974 | 8.957 | 5.935
x2 = 0.5484 | 10.66 | 6.933
x2 = 0.6475 | 14.61 | 9.221
x2 = 0.7514 | 19.62 | 12.15
x2 = 0.8484 | 25.03 | 15.37
x2 = 0.937 | 30.42 | 18.72

Brc1ccccc1 + CCCCOC(C)=O
viscosity [mPa·s], 101 kPa
Conditions | 298.15 K | 308.15 K
x2 = 0.0489 | 0.919 | 0.88
x2 = 0.1488 | 0.737 | 0.746
x2 = 0.2514 | 0.615 | 0.649
x2 = 0.3499 | 0.54 | 0.584
x2 = 0.4493 | 0.495 | 0.541
x2 = 0.4965 | 0.482 | 0.526
x2 = 0.5512 | 0.474 | 0.515
x2 = 0.6501 | 0.474 | 0.505
x2 = 0.7497 | 0.496 | 0.51
x2 = 0.8499 | 0.542 | 0.53
x2 = 0.9226 | 0.595 | 0.556

C1COCCO1 + CO
Conditions | viscosity [mPa·s]
293.15 K, 101 kPa, x2 = 0.2465 | 0.9992
293.15 K, 101 kPa, x2 = 0.3957 | 0.8686
293.15 K, 101 kPa, x2 = 0.5458 | 0.7639
293.15 K, 101 kPa, x2 = 0.6558 | 0.6972
293.15 K, 101 kPa, x2 = 0.7331 | 0.6579
293.15 K, 101 kPa, x2 = 0.8062 | 0.6268
293.15 K, 101 kPa, x2 = 0.8648 | 0.6069
293.15 K, 101 kPa, x2 = 0.9198 | 0.5935
293.15 K, 101 kPa, x2 = 0.9635 | 0.5877
293.15 K, 101.3 kPa, x2 = 0.1975 | 1.045
293.15 K, 101.3 kPa, x2 = 0.3447 | 0.9049
293.15 K, 101.3 kPa, x2 = 0.4743 | 0.8065
293.15 K, 101.3 kPa, x2 = 0.5836 | 0.7327
293.15 K, 101.3 kPa, x2 = 0.6782 | 0.6805
293.15 K, 101.3 kPa, x2 = 0.7588 | 0.6441
293.15 K, 101.3 kPa, x2 = 0.8312 | 0.6135
293.15 K, 101.3 kPa, x2 = 0.8936 | 0.5998
293.15 K, 101.3 kPa, x2 = 0.9503 | 0.59
298.15 K, 101 kPa, x1 = 0.3 | 0.6148
298.15 K, 101 kPa, x2 = 0.8474 | 0.5684
298.15 K, 101 kPa, x2 = 0.9275 | 0.5488
298.15 K, 101 kPa, x2 = 0.9636 | 0.5589
298.15 K, 101.3 kPa, x2 = 0.1975 | 0.9612
298.15 K, 101.3 kPa, x2 = 0.3447 | 0.8454
298.15 K, 101.3 kPa, x2 = 0.4743 | 0.7506
298.15 K, 101.3 kPa, x2 = 0.5836 | 0.6825
298.15 K, 101.3 kPa, x2 = 0.6782 | 0.6352
298.15 K, 101.3 kPa, x2 = 0.7588 | 0.6047
298.15 K, 101.3 kPa, x2 = 0.8312 | 0.578
298.15 K, 101.3 kPa, x2 = 0.9503 | 0.5443
303.15 K, 101 kPa, x2 = 0.2218 | 0.8759
303.15 K, 101 kPa, x2 = 0.4075 | 0.7425
303.15 K, 101 kPa, x2 = 0.5478 | 0.6573
303.15 K, 101 kPa, x2 = 0.6544 | 0.6056
303.15 K, 101 kPa, x2 = 0.7387 | 0.5694
303.15 K, 101 kPa, x2 = 0.8089 | 0.5455
303.15 K, 101 kPa, x2 = 0.8164 | 0.5434
303.15 K, 101 kPa, x2 = 0.8671 | 0.5288
303.15 K, 101 kPa, x2 = 0.9617 | 0.5105
303.15 K, 101.3 kPa, x2 = 0.1975 | 0.8931
303.15 K, 101.3 kPa, x2 = 0.3447 | 0.778
303.15 K, 101.3 kPa, x2 = 0.4743 | 0.6981
303.15 K, 101.3 kPa, x2 = 0.5836 | 0.6349
303.15 K, 101.3 kPa, x2 = 0.6782 | 0.5919
303.15 K, 101.3 kPa, x2 = 0.7588 | 0.5568
303.15 K, 101.3 kPa, x2 = 0.8312 | 0.5316
303.15 K, 101.3 kPa, x2 = 0.8936 | 0.5157
303.15 K, 101.3 kPa, x2 = 0.9503 | 0.5063
303.15 K, 101.33 kPa, x2 = 0.225 | 0.877
303.15 K, 101.33 kPa, x2 = 0.4115 | 0.733
303.15 K, 101.33 kPa, x2 = 0.662 | 0.603
303.15 K, 101.33 kPa, x2 = 0.923 | 0.52
308.15 K, 101.3 kPa, x2 = 0.1975 | 0.831
308.15 K, 101.3 kPa, x2 = 0.3447 | 0.7262
308.15 K, 101.3 kPa, x2 = 0.4743 | 0.6503
308.15 K, 101.3 kPa, x2 = 0.5836 | 0.593
308.15 K, 101.3 kPa, x2 = 0.6782 | 0.5507
308.15 K, 101.3 kPa, x2 = 0.7588 | 0.52
308.15 K, 101.3 kPa, x2 = 0.8312 | 0.497
308.15 K, 101.3 kPa, x2 = 0.9503 | 0.4725
313.15 K, 101 kPa, x2 = 0.2218 | 0.7572
313.15 K, 101 kPa, x2 = 0.2465 | 0.7401
313.15 K, 101 kPa, x2 = 0.4075 | 0.6436
313.15 K, 101 kPa, x2 = 0.5458 | 0.5763
313.15 K, 101 kPa, x2 = 0.6544 | 0.5294
313.15 K, 101 kPa, x2 = 0.7387 | 0.499
313.15 K, 101 kPa, x2 = 0.8089 | 0.4782
313.15 K, 101 kPa, x2 = 0.8671 | 0.4627
313.15 K, 101 kPa, x2 = 0.9635 | 0.446
323.15 K, 101 kPa, x2 = 0.2465 | 0.6508
323.15 K, 101 kPa, x2 = 0.3957 | 0.5742
323.15 K, 101 kPa, x2 = 0.5458 | 0.5093
323.15 K, 101 kPa, x2 = 0.6558 | 0.4701
323.15 K, 101 kPa, x2 = 0.7331 | 0.4449
323.15 K, 101 kPa, x2 = 0.8062 | 0.4249
323.15 K, 101 kPa, x2 = 0.8648 | 0.4107
323.15 K, 101 kPa, x2 = 0.9198 | 0.4003
323.15 K, 101 kPa, x2 = 0.9635 | 0.3949

C[N+](C)(C)CC(=O)[O-] + CC(O)C(=O)O
viscosity [mPa·s]
Conditions | 293.15 K | 298.15 K | 303.15 K | 308.15 K | 313.15 K | 318.15 K | 323.15 K
100 kPa, x2 = 0.667 | – | 1266 | 818.6 | 544.6 | 374.6 | 260.5 | 190.2
100 kPa, x2 = 0.833 | 386.6 | 245.3 | 167.7 | 120.4 | 86.1 | 65.5 | 50.6
101 kPa, x1 = 0.5 | – | 17780 | – | – | – | 6043 | –

CC(F)(F)Cl + FC(F)Cl
Conditions | viscosity [mPa·s]
293.15 K, 101 kPa, x2 = 0.115 | 0.2343
293.15 K, 101 kPa, x2 = 0.331 | 0.2197
293.15 K, 101 kPa, x2 = 0.54 | 0.2009
293.15 K, 101 kPa, x2 = 0.635 | 0.2028
293.15 K, 101 kPa, x2 = 0.913 | 0.177
293.25 K, 101 kPa, x2 = 0.438 | 0.2153
293.35 K, 101 kPa, x2 = 0.822 | 0.189
293.73 K, 101.13 kPa, x2 = 0.526 | 0.195
312.35 K, 101 kPa, x2 = 0.731 | 0.1511
312.55 K, 101 kPa, x2 = 0.115 | 0.1951
312.75 K, 101 kPa, x2 = 0.913 | 0.1394
312.85 K, 101 kPa, x2 = 0.635 | 0.1609
312.95 K, 101 kPa, x2 = 0.331 | 0.1754
312.95 K, 101 kPa, x2 = 0.54 | 0.1615
313.15 K, 101 kPa, x2 = 0.822 | 0.1495
313.25 K, 101 kPa, x2 = 0.438 | 0.1749

BrCCBr + Cc1ccccc1
101.33 kPa
Conditions | viscosity [mPa·s]
298.15 K, x1 = 0.1229 | 0.6433
298.15 K, x1 = 0.2578 | 0.6736
298.15 K, x1 = 0.348 | 0.7383
298.15 K, x1 = 0.4549 | 0.8563
298.15 K, x1 = 0.5548 | 0.9001
298.15 K, x1 = 0.6537 | 1.015
298.15 K, x1 = 0.746 | 1.105
298.15 K, x1 = 0.8331 | 1.268
298.15 K, x1 = 0.9171 | 1.381
308.15 K, x1 = 0.1176 | 0.5499
308.15 K, x1 = 0.2377 | 0.6
308.15 K, x1 = 0.3568 | 0.6572
308.15 K, x1 = 0.4489 | 0.7283
308.15 K, x1 = 0.5524 | 0.8275
308.15 K, x1 = 0.652 | 0.9069
308.15 K, x1 = 0.7416 | 0.9937
308.15 K, x1 = 0.8319 | 1.111
308.15 K, x1 = 0.9144 | 1.233
